Experimental data as given in PubChem BioAssay AID1963853 (Molecular Pharmacology Branch, DTP, NCI, 2024).

Tested on: 266295-075-R-J1-PDC spheroid viability
Experiment: Anticancer human tumor 266295-075-R-J1-PDC patient-derived head and neck squamous carcinoma cell line growth inhibition [POLQ]
Conditions: spheroids with HUVEC and MSC; for IC50: curve of first compound; for viability, T/C: stronger effect = lower value
How it was run: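 Growth inhibition in 3D: complex spheroids (tumor PDC, HUVEC, MSC) treated with POLQ inhibitor combinations; where Cmax unknown, highest tested concentration 10 microM, except SN-38 at 1 microM.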
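Also: spheroids exposed to compounds for seven days before readout.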

Structure (SMILES): COc1ccc([C@@H](O)c2cc(-c3ncnc4cc(N5CCOCC5)ccc34)c(F)cc2Cl)nn1 + Cc1cccc(N(C)C(=O)C2C(O)CCN2c2nc(C)cc(C(F)(F)F)c2C#N)c1
- IC50 (second compound 0.0316 µM): 3.95 µM
- IC50 (second compound 0.1 µM): 2.46 µM
- IC50 (second compound 0.316 µM): 2.64 µM
- IC50 (second compound 1 µM): 2.7 µM
- IC50 (second compound 3.16 µM): 3.94 µM
- IC50 (second compound 10 µM): 5.67 µM
- viability, T/C (second compound 0.0316 µM, first compound 0.0316 µM): 102%
- viability, T/C (second compound 0.0316 µM, first compound 0.1 µM): 82.1%
- viability, T/C (second compound 0.0316 µM, first compound 0.316 µM): 73.5%
- viability, T/C (second compound 0.0316 µM, first compound 1 µM): 73.9%
- viability, T/C (second compound 0.0316 µM, first compound 3.16 µM): 47.3%
- viability, T/C (second compound 0.0316 µM, first compound 10 µM): 40.5%
- viability, T/C (second compound 0.1 µM, first compound 0.0316 µM): 90.2%
- viability, T/C (second compound 0.1 µM, first compound 0.1 µM): 86.5%
- viability, T/C (second compound 0.1 µM, first compound 0.316 µM): 81.5%
- viability, T/C (second compound 0.1 µM, first compound 1 µM): 71%
- viability, T/C (second compound 0.1 µM, first compound 3.16 µM): 43%
- viability, T/C (second compound 0.1 µM, first compound 10 µM): 39.9%
- viability, T/C (second compound 0.316 µM, first compound 0.0316 µM): 101%
- viability, T/C (second compound 0.316 µM, first compound 0.1 µM): 112%
- viability, T/C (second compound 0.316 µM, first compound 0.316 µM): 91.4%
- viability, T/C (second compound 0.316 µM, first compound 1 µM): 62.7%
- viability, T/C (second compound 0.316 µM, first compound 3.16 µM): 53.2%
- viability, T/C (second compound 0.316 µM, first compound 10 µM): 38.9%
- viability, T/C (second compound 1 µM, first compound 0.0316 µM): 81.8%
- viability, T/C (second compound 1 µM, first compound 0.1 µM): 94.2%
- viability, T/C (second compound 1 µM, first compound 0.316 µM): 69.3%
- viability, T/C (second compound 1 µM, first compound 1 µM): 76.6%
- viability, T/C (second compound 1 µM, first compound 3.16 µM): 45.3%
- viability, T/C (second compound 1 µM, first compound 10 µM): 39.1%
- viability, T/C (second compound 3.16 µM, first compound 0.0316 µM): 85.3%
- viability, T/C (second compound 3.16 µM, first compound 0.1 µM): 80.9%
- viability, T/C (second compound 3.16 µM, first compound 0.316 µM): 76%
- viability, T/C (second compound 3.16 µM, first compound 1 µM): 66.2%
- viability, T/C (second compound 3.16 µM, first compound 3.16 µM): 53.3%
- viability, T/C (second compound 3.16 µM, first compound 10 µM): 36.5%
- viability, T/C (second compound 10 µM, first compound 0.0316 µM): 115%
- viability, T/C (second compound 10 µM, first compound 0.1 µM): 92.4%
- viability, T/C (second compound 10 µM, first compound 0.316 µM): 89%
- viability, T/C (second compound 10 µM, first compound 1 µM): 69%
- viability, T/C (second compound 10 µM, first compound 3.16 µM): 53.7%
- viability, T/C (second compound 10 µM, first compound 10 µM): 44.8%
